Results on two molecules are retold here after ChEMBL document CHEMBL1201862, “PubChem BioAssay data set” (2004).

Structures are written as SMILES. Activity calls are given as the source filed them. Rule as the data show it, for most assays here: actives have a measured IC50 and inactives only a lower limit.

Experiment [1] deals with T1, Insulin-degrading enzyme (Homo sapiens, UniProt P14735).
T1 sequence (P14735 whole entry): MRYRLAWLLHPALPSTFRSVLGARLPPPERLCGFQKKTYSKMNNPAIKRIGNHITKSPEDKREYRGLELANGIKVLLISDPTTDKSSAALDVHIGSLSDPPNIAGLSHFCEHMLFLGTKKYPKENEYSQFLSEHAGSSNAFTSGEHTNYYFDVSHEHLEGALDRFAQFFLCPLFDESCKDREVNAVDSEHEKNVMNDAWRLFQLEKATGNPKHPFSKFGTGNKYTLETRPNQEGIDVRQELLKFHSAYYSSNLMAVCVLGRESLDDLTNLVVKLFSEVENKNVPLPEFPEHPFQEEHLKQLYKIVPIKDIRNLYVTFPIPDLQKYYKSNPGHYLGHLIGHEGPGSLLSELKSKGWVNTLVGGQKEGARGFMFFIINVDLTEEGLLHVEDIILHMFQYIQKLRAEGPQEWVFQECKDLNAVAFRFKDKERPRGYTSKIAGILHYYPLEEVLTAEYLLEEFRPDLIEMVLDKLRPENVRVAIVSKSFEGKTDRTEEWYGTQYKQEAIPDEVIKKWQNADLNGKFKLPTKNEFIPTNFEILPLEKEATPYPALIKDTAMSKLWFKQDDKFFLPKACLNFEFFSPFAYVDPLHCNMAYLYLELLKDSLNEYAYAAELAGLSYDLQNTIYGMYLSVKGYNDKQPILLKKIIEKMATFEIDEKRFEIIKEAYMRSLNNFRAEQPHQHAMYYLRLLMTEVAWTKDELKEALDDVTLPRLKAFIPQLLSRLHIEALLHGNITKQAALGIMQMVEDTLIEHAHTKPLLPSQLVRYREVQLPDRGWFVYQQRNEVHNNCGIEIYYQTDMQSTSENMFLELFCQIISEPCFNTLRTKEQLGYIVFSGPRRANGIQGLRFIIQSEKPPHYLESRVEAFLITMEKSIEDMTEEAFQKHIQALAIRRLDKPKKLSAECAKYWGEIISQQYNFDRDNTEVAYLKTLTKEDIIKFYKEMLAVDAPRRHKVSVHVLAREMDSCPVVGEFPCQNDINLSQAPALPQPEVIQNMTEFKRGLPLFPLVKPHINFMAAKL
In words: cellular IDE activation of Abeta substrate cleavage – fluorescence polarization, HEK cells, dose response (AID 588439). Type of experiment: functional, cell-based. (In general: In fluorescence polarisation assays a small probe gives low polarisation when free and higher when bound to something large.)

Experiment [2] relates to HEK293. In words: optical interference in Abeta FP readout, dose response, artefact control for IDE activator project, biochemical, fluorescence polarization (AID 588442). As to conditions: Homo sapiens. In kind it is functional, cell-based.
Experiment [3] relates to HEK293. In words: membrane integrity loss in HEK cells – cell-based, fluorescence, cytotoxicity control for IDE activator project, dose response (AID 588440).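 Also: cytotoxicity by LDH release measuring loss of membrane integrity.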 In kind it is functional. As to conditions: Homo sapiens.
Experiment [4] has as its target T1, Insulin-degrading enzyme. In words: recombinant IDE activation, cell-free – biochemical, fluorescence polarization, counter-screen for IDE activator project, dose response (AID 588681).
The target of experiment [5] is T2, Sentrin-specific protease 6 (Homo sapiens, UniProt Q9GZR1).
T2 sequence (Q9GZR1 whole entry): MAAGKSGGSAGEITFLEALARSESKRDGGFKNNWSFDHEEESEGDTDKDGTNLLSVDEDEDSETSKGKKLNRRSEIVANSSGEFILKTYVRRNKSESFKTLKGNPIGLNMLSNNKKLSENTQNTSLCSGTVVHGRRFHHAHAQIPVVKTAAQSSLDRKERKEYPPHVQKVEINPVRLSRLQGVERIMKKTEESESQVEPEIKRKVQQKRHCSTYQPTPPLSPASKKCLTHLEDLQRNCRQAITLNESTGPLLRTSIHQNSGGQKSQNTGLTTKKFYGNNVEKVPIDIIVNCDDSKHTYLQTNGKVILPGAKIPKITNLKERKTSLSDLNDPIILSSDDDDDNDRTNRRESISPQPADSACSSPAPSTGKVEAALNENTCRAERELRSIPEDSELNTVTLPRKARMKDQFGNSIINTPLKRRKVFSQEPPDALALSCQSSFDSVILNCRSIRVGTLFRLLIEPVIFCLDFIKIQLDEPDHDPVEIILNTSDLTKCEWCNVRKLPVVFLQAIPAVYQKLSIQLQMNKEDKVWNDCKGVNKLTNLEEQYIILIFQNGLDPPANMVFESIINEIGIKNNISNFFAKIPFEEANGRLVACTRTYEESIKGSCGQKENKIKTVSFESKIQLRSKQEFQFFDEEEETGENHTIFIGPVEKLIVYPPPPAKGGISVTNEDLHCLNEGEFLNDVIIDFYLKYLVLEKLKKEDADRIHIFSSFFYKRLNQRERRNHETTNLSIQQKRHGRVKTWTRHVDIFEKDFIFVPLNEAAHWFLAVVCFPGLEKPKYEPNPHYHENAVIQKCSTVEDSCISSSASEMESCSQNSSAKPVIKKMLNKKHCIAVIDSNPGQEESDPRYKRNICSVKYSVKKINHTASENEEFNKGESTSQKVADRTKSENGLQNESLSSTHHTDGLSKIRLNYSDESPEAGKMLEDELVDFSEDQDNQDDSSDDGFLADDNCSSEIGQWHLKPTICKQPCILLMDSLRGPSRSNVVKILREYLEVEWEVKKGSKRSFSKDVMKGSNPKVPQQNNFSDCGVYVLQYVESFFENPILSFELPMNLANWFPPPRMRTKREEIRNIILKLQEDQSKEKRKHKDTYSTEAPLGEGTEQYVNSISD
Put plainly: SAR Analysis of small molecule inhibitors of Sentrin-specific protease 6 (SENP6) using a Luminescent assay. [Related pubchem assays (depositor defined):AID2582, AID2599]. Type of experiment: functional.

The target of experiment [6] is T3, Sentrin-specific protease 7 (Homo sapiens, UniProt Q9BQF6).
T3 sequence (Q9BQF6 whole entry): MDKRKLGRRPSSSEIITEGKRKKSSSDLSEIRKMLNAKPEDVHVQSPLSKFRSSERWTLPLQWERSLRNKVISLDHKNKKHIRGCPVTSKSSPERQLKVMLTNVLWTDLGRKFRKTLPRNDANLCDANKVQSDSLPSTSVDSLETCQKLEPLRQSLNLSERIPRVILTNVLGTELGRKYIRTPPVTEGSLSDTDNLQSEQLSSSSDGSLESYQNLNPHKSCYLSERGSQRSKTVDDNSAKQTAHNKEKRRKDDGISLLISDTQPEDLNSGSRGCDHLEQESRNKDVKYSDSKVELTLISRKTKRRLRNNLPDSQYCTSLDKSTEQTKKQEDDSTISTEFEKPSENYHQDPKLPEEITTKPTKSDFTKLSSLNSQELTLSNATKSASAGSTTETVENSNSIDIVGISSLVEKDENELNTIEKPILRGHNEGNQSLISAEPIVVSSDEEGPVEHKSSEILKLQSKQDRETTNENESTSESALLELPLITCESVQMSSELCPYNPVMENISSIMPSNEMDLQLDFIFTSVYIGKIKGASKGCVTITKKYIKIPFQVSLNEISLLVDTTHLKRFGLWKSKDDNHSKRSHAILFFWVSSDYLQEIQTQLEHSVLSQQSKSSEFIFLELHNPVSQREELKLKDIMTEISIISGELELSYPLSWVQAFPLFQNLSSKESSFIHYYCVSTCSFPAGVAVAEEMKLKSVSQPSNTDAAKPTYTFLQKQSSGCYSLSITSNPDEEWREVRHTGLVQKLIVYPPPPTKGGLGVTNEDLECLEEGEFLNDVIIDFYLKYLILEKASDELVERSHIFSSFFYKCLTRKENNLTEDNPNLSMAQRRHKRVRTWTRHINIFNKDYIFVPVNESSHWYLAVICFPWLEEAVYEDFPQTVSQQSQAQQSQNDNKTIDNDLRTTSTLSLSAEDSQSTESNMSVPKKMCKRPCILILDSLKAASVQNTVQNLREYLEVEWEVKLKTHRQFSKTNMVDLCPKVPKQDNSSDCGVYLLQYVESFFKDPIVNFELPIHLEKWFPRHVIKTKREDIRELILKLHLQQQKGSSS
In words: inhibition of human SENP7 cleavage activity – biochemical, luminescence, set 2, SAR follow-up (AID 588600). In kind it is functional.

For experiment [7], the target named is T4, Caspase-3 (Homo sapiens, UniProt P42574).
T4 sequence (P42574 whole entry): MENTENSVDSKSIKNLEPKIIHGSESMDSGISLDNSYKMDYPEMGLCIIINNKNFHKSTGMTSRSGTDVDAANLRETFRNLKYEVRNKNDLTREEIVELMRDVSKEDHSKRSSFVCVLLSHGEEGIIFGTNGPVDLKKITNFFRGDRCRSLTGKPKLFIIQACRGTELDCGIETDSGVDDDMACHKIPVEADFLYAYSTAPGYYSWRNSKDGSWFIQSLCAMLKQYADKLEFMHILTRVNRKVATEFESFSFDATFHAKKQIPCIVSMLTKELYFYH
In words: SAR Analysis of small molecule inhibitors of Sentrin-specific proteases (SENPs) using a Caspase-3 Selectivity assay. [Related pubchem assays (depositor defined):AID2540, AID2599, AID434973, AID489001]. In kind it is functional.

Experiment [8] addresses T2, Sentrin-specific protease 6. Put plainly: inhibition of human SENP6 catalytic domain – biochemical, luminescence, set 2, SAR follow-up (AID 588598). In kind it is functional.
Experiment [9] concerns the target T3, Sentrin-specific protease 7. Put plainly: inhibition of human SENP7 cleavage activity – biochemical, luminescence, SAR follow-up (AID 504497). Type of experiment: functional.
Experiment [10] deals with T4, Caspase-3. Put plainly: inhibition of recombinant caspase-3 activity – biochemical, luminescence, set 2, selectivity assay for SENP protease inhibitor project, SAR follow-up (AID 588599). Type of experiment: functional.
The target of experiment [11] is T5, Sentrin-specific protease 8 (Homo sapiens, UniProt Q96LD8).
T5 sequence (Q96LD8 whole entry): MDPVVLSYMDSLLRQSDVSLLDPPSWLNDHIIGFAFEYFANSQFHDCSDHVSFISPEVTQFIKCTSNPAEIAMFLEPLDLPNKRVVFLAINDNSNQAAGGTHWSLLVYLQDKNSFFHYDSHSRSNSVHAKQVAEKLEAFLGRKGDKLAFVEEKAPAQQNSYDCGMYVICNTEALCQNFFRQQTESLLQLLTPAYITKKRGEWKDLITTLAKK
Put plainly: inhibition of human SENP8 cleavage activity – biochemical, luminescence, SAR follow-up (AID 504501). In kind it is functional.

Experiment [12] has as its target T5, Sentrin-specific protease 8. Put plainly: inhibition of sentrin protease 8 – biochemical, luminescence, set 2, SAR follow-up (AID 588601). In kind it is functional.

Turning to `CC(C)CN1CCC(=O)N([C@H](CO)c2ccccc2)CC1`, the EC50 on Insulin-degrading enzyme [1], in the experiment with HEK293 [2] and at Insulin-degrading enzyme [4] was > 54.7 µM (inactive) in each case. Besides, the IC50 (commonly the concentration at which inhibition is half-maximal) in the experiment with HEK293 [3] was > 89.3 µM (inactive).
`Oc1ccccc1-c1nc(/C=C/c2ccccc2Cl)no1`: the IC50 in experiment [5] was 1.2 µM (active); in experiment [6] it was 1.36 µM (active); at Caspase-3 [7], 1.2 µM (active); in [8], 1.35 µM (active); in experiment [9] it was 1 µM (active); at Caspase-3 [10], 1.44 µM (active). Further, the IC50 in experiment [11] was 1.2 µM (active); in [12], 1.29 µM (active).
